The term IC50 denotes the midpoint of a concentration-inhibition curve.

In experiment [1] the target is human orexin-2 receptor (Homo sapiens (Human), UniProt O43614). Briefly: FLIPR Ca2+ Flux Assay, CHO cells expressing orexin-2 receptor. The class given is cell-based. The settings on record: 70 pM Ala-6,12 orexin-A agonist, read-out: hOX2R FLIPR IC50. The protocol: The utility of the compounds in accordance with the present invention as orexin receptor OX1R and/or OX2R antagonists may be readily determined without undue experimentation by methodology well known in the art, including the “FLIPR Ca^2+ Flux Assay” (Okumura et al., Biochem. Biophys. Res. Comm. 280:976-981, 2001). In a typical experiment the OX1 and OX2 receptor antagonistic activity of the compounds of the present invention was determined in accordance with the following experimental method. For intracellular calcium measurements, Chinese hamster ovary (CHO) cells expressing the rat orexin-1 receptor or the human orexin-2 receptor, are grown in Iscove's modified DMEM containing 2 mM L-glutamine, […], 1% hypoxanthine-thymidine supplement, 100 U/ml penicillin, 100 μg/ml streptomycin and 10% heat-inactivated fetal calf serum (FCS). The cells are seeded at 20,000 cells/well into Becton-Dickinson black 384-well clear bottom sterile plates coated with poly-D-lysine. All reagents were from GIBCO-Invitrogen Corp. The seeded plates are incubated overnight at 37° C. and 5% CO2. Ala-6,12 human orexin-A as the agonist is prepared as a 1 mM stock solution in 1% bovine serum albumin (BSA) and diluted in assay buffer (HBSS containing 20 mM HEPES, 0.1% BSA and 2.5 mM probenecid, pH7.4) for use in the assay at a final concentration of 70 pM. Test compounds are prepared as 10 mM stock solution in DMSO, then diluted in 384-well plates, first in DMSO, then assay buffer. On the day of the assay, cells are washed 3 times with 100 μl assay buffer and then incubated for 60 min (37° C., 5% CO2) in 60 μl assay buffer containing 1 μM Fluo-4AM ester, 0.02% pluronic acid, and 1% BSA. The dye loading solution is then aspirated and cells are washed 3 times with 100 μl assay buffer. 30 μl of that same buffer is left in each well. Within the Fluorescent Imaging Plate Reader (FLIPR, Molecular Devices), test compounds are added to the plate in a volume of 25 μl, incubated for 5 min and finally 25 μl of agonist is added. Fluorescence is measured for each well at 1 second intervals for 5 minutes and the height of each fluorescence peak is compared to the height of the fluorescence peak induced by 70 pM Ala-6,12 orexin-A with buffer in place of antagonist. For each antagonist, IC50 value (the concentration of compound needed to inhibit 50% of the agonist response) is determined. Alternatively, compound potency can be assessed by a radioligand binding assay (described in Bergman et. al. Bioorg. Med. Chem. Lett. 2008, 18, 1425-1430) in which the inhibition constant (Ki) is determined in membranes prepared from CHO cells expressing either the OX1 or OX2 receptor. The intrinsic orexin receptor antagonist activity of a compound which may be used in the present invention may be determined by these assays.
Sequence of human orexin-2 receptor (O43614 whole entry): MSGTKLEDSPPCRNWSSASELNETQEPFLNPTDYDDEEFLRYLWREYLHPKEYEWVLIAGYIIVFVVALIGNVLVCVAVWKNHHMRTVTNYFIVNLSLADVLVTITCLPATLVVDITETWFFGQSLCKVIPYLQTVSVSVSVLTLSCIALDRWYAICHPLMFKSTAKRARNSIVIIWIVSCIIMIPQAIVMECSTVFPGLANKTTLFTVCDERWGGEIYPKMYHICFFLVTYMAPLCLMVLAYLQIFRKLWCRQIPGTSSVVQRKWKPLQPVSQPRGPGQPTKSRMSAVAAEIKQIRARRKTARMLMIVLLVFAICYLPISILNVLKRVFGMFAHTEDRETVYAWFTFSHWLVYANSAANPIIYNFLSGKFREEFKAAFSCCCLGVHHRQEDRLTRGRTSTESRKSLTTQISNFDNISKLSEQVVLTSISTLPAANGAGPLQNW

The target of experiment [2] is hOX1R (Homo sapiens, UniProt O43613). Briefly: FLIPR Ca2+ Flux Assay, CHO cells expressing orexin-1 receptor. In kind it is cell-based. The conditions noted are these: 70 pM Ala-6,12 orexin-A agonist. Background: Calcium assays in cells follow changes in intracellular calcium, usually with a dye or a luminescent sensor.

Each structure is given as a SMILES string.

Take `Cc1nc(-c2c(F)cccc2C(=O)N2C[C@H](Oc3nccc4c3C(=O)OC4(C)C)CC[C@H]2C)no1` [Example 16, 4-{[(3R,6R)-1-{[3-fluoro-2-(5-methyl-1,2,4-oxadiazol-3-yl)phenyl]carbonyl}-6-methylpiperidin-3-yl]oxy}-1,1-dimethylfuro[3,4-c]pyridin-3(1H)-one]: the figures for the IC50 in experiment [1] and in experiment [2] were 0.09 µM and 10 µM, respectively.
In the case of `Cc1noc(-c2cc(F)ccc2C(=O)N2C[C@H](Oc3nccc4c3C(=O)OC4(C)C)CC[C@H]2C)n1` [Example 19, 4-{[(3R,6R)-1-{[4-fluoro-2-(3-methyl-1,2,4-oxadiazol-5-yl)phenyl]carbonyl}-6-methylpiperidin-3-yl]oxy}-1,1-dimethylfuro[3,4-c]pyridin-3(1H)-one], the 50% inhibitory concentration (IC50) in experiment [1] was 0.382 µM; in experiment [2], 10 µM.
For the compound `Cc1nc(-c2cc(F)ccc2C(=O)N2C[C@H](Oc3nccc4c3C(=O)OC4(C)C)CC[C@H]2C)no1` [Example 15, 4-{[(3R,6R)-1-{[4-fluoro-2-(5-methyl-1,2,4-oxadiazol-3-yl)phenyl]carbonyl}-6-methylpiperidin-3-yl]oxy}-1,1-dimethylfuro[3,4-c]pyridin-3(1H)-one], the IC50 in experiment [1] turned out to be 0.232 µM; in experiment [2] it was 10 µM.
With `C[C@@H]1CC[C@@H](Oc2nccc3c2C(=O)OC3(C)C)CN1C(=O)c1ccccc1-n1nccn1` [Example 1, 1,1-Dimethyl-4-{[(3R,6R)-6-methyl-1-{[2-(2H-1,2,3-triazol-2-yl)phenyl]carbonyl}piperidin-3-yl]oxy}furo[3,4-c]pyridin-3(1H)-one], the values for the IC50 in experiment [1] and in experiment [2] were 0.02 µM and 8.29 µM, respectively.
The matching figures for `COc1ccc(C(=O)N2C[C@H](Oc3nccc4c3C(=O)OC4(C)C)CC[C@H]2C)c(-n2nccn2)c1` [Example 11, 4-{[(3R,6R)-1-{[4-methoxy-2-(2H-1,2,3-triazol-2-yl)phenyl]carbonyl}-6-methylpiperidin-3-yl]oxy}-1,1-dimethylfuro[3,4-c]pyridin-3(1H)-one]: 0.147 µM and 10 µM.
For the compound `C[C@@H]1CC[C@@H](Oc2nccc3c2COC3=O)CN1C(=O)c1ccccc1-c1ncccn1` [Example 36, 4-({(3R,6R)-6-methyl-1-[(2-pyrimidin-2-ylphenyl)car-bonyl]piperidin-3-yl}oxy)furo[3,4-c]pyridin-1(3H)-one], the IC50 in experiment [1] was 0.02 µM; in experiment [2] it was 3.1 µM.
The matching figures for `C[C@@H]1CC[C@@H](Oc2cccc3c2C(=O)OC3(C)C)CN1C(=O)c1ccccc1-n1nccn1` [Example 38, 3,3-Dimethyl-7-{[(3R,6R)-6-methyl-1-{[2-(2H-1,2,3-triazol-2-yl)phenyl]carbonyl}piperidin-3-yl]oxy}-2-benzofuran-1(3H)-one]: 0.169 µM and 10 µM.
With `Cc1noc(-c2cccc(F)c2C(=O)N2C[C@H](Oc3nccc4c3C(=O)OC4(C)C)CC[C@H]2C)n1` [Example 17, 4-{[(3R,6R)-1-{[2-fluoro-6-(3-methyl-1,2,4-oxadiazol-5-yl)phenyl]carbonyl}-6-methylpiperidin-3-yl]oxy}-1,1-dimethylfuro[3,4-c]pyridin-3(1H)-one], the values for the IC50 in experiment [1] and in experiment [2] were 0.102 µM and 10 µM, respectively.
As for `C[C@@H]1CC[C@@H](Oc2nccc3c2COC3=O)CN1C(=O)c1ccccc1-n1ncnn1` [Example 34, 4-{[(3R,6R)-6-methyl-1-{[2-(2H-tetrazol-2-yl)phenyl]carbonyl}-piperidin-3-yl]oxy}-furo[3,4-c]pyridin-1(3H)-one], the IC50 in experiment [1] is 0.03 µM; in experiment [2], 10 µM.
For `C[C@@H]1CC[C@@H](Oc2nccc3c2COC3=O)CN1C(=O)c1ccc(F)cc1-n1nccn1` [Example 32, 4-{[(3R,6R)-1-{[4-fluoro-2-(2H-1,2,3-triazol-2-yl)phenyl]-carbonyl}-6-methyl-piperidin-3-yl]oxy}furo[3,4-c]pyridin-1(3H)-one], the IC50 worked out at 0.015 µM in experiment [1] and 8.29 µM in experiment [2].
Take `C[C@@H]1CC[C@@H](Oc2nccc3c2COC3=O)CN1C(=O)c1ccccc1-n1nccn1` [Example 28, 4-{[(3R,6R)-6-Methyl-1-{[2-(2H-1,2,3-triazol-2-yl)phenyl]carbonyl}piperidin-3-yl]oxy}furo[3,4-c]pyridin-1(3H)-one]: the results for the IC50 in experiment [1] and in experiment [2] were 0.016 µM and 4.67 µM, respectively.
The matching figures for `C[C@@H]1CC[C@@H](Oc2nccc3c2C(=O)OC3(C)C)CN1C(=O)c1ccsc1-n1nccn1` [Example 20, 1,1-Dimethyl-4-{[(3R,6R)-6-methyl-1-{[2-(2H-1,2,3-triazol-2-yl)thiophen-3-yl]carbonyl}piperidin-3-yl]oxy}furo[3,4-c]pyridin-3(1H)-one]: 0.039 µM and 10 µM.
With `C[C@@H]1CC[C@@H](Nc2nccc3c2C(=O)OC3(C)C)CN1C(=O)c1ccsc1-c1ncccn1` [Example 44, 1,1-Dimethyl-4-({(3R,6R)-6-methyl-1-[(2-pyrimidin-2-ylthiophen-3-yl)carbonyl]piperidin-3-yl}amino)furo[3,4-c]pyridin-3(1H)-one], the IC50 in experiment [1] was found to be 0.028 µM; in experiment [2], 1 µM.
In the case of `C[C@@H]1CC[C@@H](Oc2nccc3c2COC3=O)CN1C(=O)c1ccccc1CS(C)(=O)=O` [Example 33, 4-{[(3R,6R)-6-methyl-1-({2-[(methyl-sulfonyl)methyl]-phenyl}carbonyl)-piperidin-3-yl]oxy}furo[3,4-c]pyridin-1(3H)-one], the IC50 in experiment [1] was 0.02 µM; in experiment [2] it was no less than 10 µM.
With `Cc1nc(-c2ccc(F)cc2C(=O)N2C[C@H](Oc3nccc4c3C(=O)OC4(C)C)CC[C@H]2C)no1` [Example 14, 4-{[(3R,6R)-1-{[5-fluoro-2-(5-methyl-1,2,4-oxadiazol-3-yl)phenyl]carbonyl}-6-methylpiperidin-3-yl]oxy}-1,1-dimethylfuro[3,4-c]pyridin-3(1H)-one], the IC50 in experiment [1] came out at 0.076 µM; in experiment [2], 10 µM.
Take `C[C@@H]1CC[C@@H](Oc2nccc3c2C(=O)OC3(C)C)CN1C(=O)c1ccc(Cl)cc1-n1nccn1` [Example 9, 4-{[(3R,6R)-1-{[4-chloro-2-(2H-1,2,3-triazol-2-yl)phenyl]carbonyl}-6-methylpiperidin-3-yl]oxy}-1,1-dimethylfuro[3,4-c]pyridin-3(1H)-one]: the IC50 turned out to be 0.054 µM in experiment [1] and 3.74 µM in experiment [2].
Turning to `C[C@@H]1CC[C@@H](Nc2nccc3c2C(=O)OC3(C)C)CN1C(=O)c1ccccc1-n1nccn1` [Example 39, 1,1-Dimethyl-4-{[(3R,6R)-6-methyl-1-{[2-(2H-1,2,3-triazol-2-yl)phenyl]carbonyl}piperidin-3-yl]amino}furo[3,4-c]pyridin-3(1H)-one], the IC50 is 0.049 µM in experiment [1] and 5.88 µM in experiment [2].
As to `C[C@@H]1CC[C@@H](Oc2nccc3c2COC3=O)CN1C(=O)c1ccsc1-n1nccn1` [Example 29, 4-{[(3R,6R)-6-methyl-1-{[2-(2H-1,2,3-triazol-2-yl)thiophen-3-yl]carbonyl}piperidin-3-yl]oxy}furo[3,4-c]pyridin-1(3H)-one], the results for the IC50 in experiment [1] and in experiment [2] were 0.016 µM and 3.16 µM, respectively.
Take `C[C@@H]1CC[C@@H](Oc2nccc3c2COC3=O)CN1C(=O)c1cscc1-c1ncccn1` [Example 35, 4-({(3R,6R)-6-methyl-1-[(4-pyrimidin-2-ylthiophen-3-yl)carbonyl]piperidin-3-yl}oxy)furo[3,4-c]pyridin-1(3H)-one]: the IC50 came to 0.02 µM in experiment [1] and 10 µM in experiment [2].
On to `C[C@@H]1CC[C@@H](Oc2nccc3c2COC3=O)CN1C(=O)c1ccccc1C1(C#N)CC1` [Example 31, 1-[2-({(2R,5R)-2-methyl-5-[(1-oxo-1,3-dihydrofuro[3,4-c]pyridin-4-yl)oxy]-piperidin-1-yl}-carbonyl)-phenyl]cyclo-propane-carbonitrile], for which the values for the IC50 in experiment [1] and in experiment [2] were 0.012 µM and 1.78 µM, respectively.
Regarding `C[C@@H]1CC[C@@H](Oc2nccc3c2C(=O)OC3(C)C)CN1C(=O)c1cc(Cl)ccc1-n1nccn1` [Example 3, 4-{[(3R,6R)-1-{[5-chloro-2-(2H-1,2,3-triazol-2-yl)phenyl]carbonyl}-6-methylpiperidin-3-yl]oxy}-1,1-dimethylfuro[3,4-c]pyridin-3(1H)-one], the figures for the IC50 in experiment [1] and in experiment [2] were 0.042 µM and 3.74 µM, respectively.

Source of the values: patent US9556190B2, “Piperidinyloxy lactone orexin receptor antagonists” (MERCK SHARP & DOHME CORP., priority 2013, dated 2017).
